Key:
Assay in all cases: relative viability (nuclei count vs DMSO), 5 days (fraction); higher = more cells survive
Cabozantinib + Lapatinib = compound: COc1cc2nccc(Oc3ccc(NC(=O)C4(C(=O)Nc5ccc(F)cc5)CC4)cc3)c2cc1OC [Cabozantinib] + CS(=O)(=O)CCNCc1ccc(-c2ccc3ncnc(Nc4ccc(OCc5cccc(F)c5)c(Cl)c4)c3c2)o1 [Lapatinib] (partner 2 µM)
Procedure, shortened: (§1)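 Five library-drug doses in √10 steps were combined with a fixed anchor-drug dose, or a single drug was given alone, by pin tool to lung cancer cell lines in 1536-well plates the day after seeding. Nuclei were stained and counted after 5 days. Relative viability is the nuclei count in treated wells over that in vehicle wells, taken as the median of duplicate plates.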

Kobe2602 + Phenformin = compound: C1=CC(=CC=C1NC(=S)NNC2=C(C=C(C=C2[N+](=O)[O-])C(F)(F)F)[N+](=O)[O-])F [Kobe2602] + N=C(N)NC(=N)NCCc1ccccc1 [Phenformin] (partner 250 µM)
Procedure, shortened: as §1

Zosuquidar + Phenformin = compound: O[C@@H](COc1cccc2ncccc12)CN1CCN([C@@H]2c3ccccc3[C@@H]3[C@H](c4ccccc42)C3(F)F)CC1 [Zosuquidar] + N=C(N)NC(=N)NCCc1ccccc1 [Phenformin] (partner 250 µM)
Procedure, shortened: as §1

Zosuquidar + Olaparib = compound: O[C@@H](COc1cccc2ncccc12)CN1CCN([C@@H]2c3ccccc3[C@@H]3[C@H](c4ccccc42)C3(F)F)CC1 [Zosuquidar] + O=C(c1cc(Cc2n[nH]c(=O)c3ccccc23)ccc1F)N1CCN(C(=O)C2CC2)CC1 [Olaparib] (partner 8 µM)
Procedure, shortened: as §1

| Cell Line | relative viability (Cabozantinib + Lapatinib; first compound 0.02 µM) | relative viability (Cabozantinib + Lapatinib; first compound 0.06325 µM) | relative viability (Cabozantinib + Lapatinib; first compound 0.2 µM) | relative viability (Cabozantinib + Lapatinib; first compound 0.6325 µM) | relative viability (Cabozantinib + Lapatinib; first compound 2 µM) | relative viability (Kobe2602 + Phenformin; first compound 0.2 µM) | relative viability (Kobe2602 + Phenformin; first compound 0.6325 µM) | relative viability (Kobe2602 + Phenformin; first compound 2 µM) | relative viability (Kobe2602 + Phenformin; first compound 6.325 µM) | relative viability (Kobe2602 + Phenformin; first compound 20 µM) | relative viability (Zosuquidar + Phenformin; first compound 0.01 µM) | relative viability (Zosuquidar + Phenformin; first compound 0.03162 µM) | relative viability (Zosuquidar + Phenformin; first compound 0.1 µM) | relative viability (Zosuquidar + Phenformin; first compound 0.3162 µM) | relative viability (Zosuquidar + Phenformin; first compound 1 µM) | relative viability (Zosuquidar + Olaparib; first compound 0.01 µM) | relative viability (Zosuquidar + Olaparib; first compound 0.03162 µM) | relative viability (Zosuquidar + Olaparib; first compound 0.1 µM) | relative viability (Zosuquidar + Olaparib; first compound 0.3162 µM) | relative viability (Zosuquidar + Olaparib; first compound 1 µM) |
| --- | --- | --- | --- | --- | --- | --- | --- | --- | --- | --- | --- | --- | --- | --- | --- | --- | --- | --- | --- | --- |
| 201T | 1.02 | 1.14 | 0.991 | 0.999 | 1.08 | 0.463 | 0.449 | 0.425 | 0.394 | 0.405 | 0.449 | 0.444 | 0.404 | 0.468 | 0.472 | 0.801 | 0.821 | 0.816 | 0.836 | 0.862 |
| A549 | 0.996 | 1.03 | 0.872 | 0.926 | 0.807 | 0.163 | 0.182 | 0.199 | 0.192 | 0.196 | 0.19 | 0.176 | 0.145 | 0.255 | 0.172 | 0.301 | 0.379 | 0.306 | 0.371 | 0.35 |
| A-427 | 1.1 | 1.11 | 0.963 | 1.02 | 1.08 | 0.416 | 0.413 | 0.364 | 0.303 | 0.307 | 0.344 | 0.324 | 0.368 | 0.401 | 0.383 | 0.757 | 0.711 | 0.76 | 0.771 | 0.819 |
| ABC-1 | 1.42 | 1.1 | 1.11 | 1.1 | 1.13 | 0.215 | 0.233 | – | 0.211 | 0.227 | 0.253 | 0.257 | 0.252 | 0.256 | 0.266 | 0.892 | 0.684 | 1.09 | 0.78 | 0.901 |
| BEN | 0.702 | 0.814 | 0.846 | 0.67 | 0.63 | 0.264 | 0.295 | 0.302 | 0.246 | 0.25 | 0.268 | 0.245 | 0.263 | 0.265 | 0.26 | 1.15 | 0.953 | 0.883 | 1.02 | 0.97 |
| CAL-12T | 0.708 | 0.653 | 0.701 | – | 0.529 | 0.586 | 0.597 | 0.579 | 0.538 | 0.449 | 0.634 | 0.629 | 0.554 | 0.576 | 0.582 | 0.739 | 0.715 | 0.741 | 0.793 | 0.706 |
| Calu-6 | 1.14 | 1.2 | 1.15 | 0.986 | 1.05 | – | – | – | – | – | – | – | – | – | – | 0.583 | 0.677 | 0.714 | 0.605 | 0.594 |
| ChaGo-K-1 | – | – | – | – | – | 0.564 | 0.574 | 0.523 | 0.463 | 0.463 | 0.573 | 0.419 | 0.554 | 0.506 | 0.51 | 0.388 | 0.468 | 0.434 | 0.474 | 0.413 |

Source: the supplement of paper PMC10307832
